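96-well plates; 48 h exposure; 5 concentrations. Endpoints by linear interpolation between flanking doses. Not reached: highest tested concentration assigned. TGI: concentration producing complete growth inhibition.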
Assays:
Experiment in all cases: DTP human tumour cell line panel, 48 h
[1] = tested on: MDA-N
[2] = tested on: SNB-75 CNS
[3] = tested on: MCF7 breast
[4] = tested on: NCI-H460 lung
[5] = tested on: MALME-3M melanoma
[6] = tested on: 786-0 renal
[7] = tested on: PC-3 prostate
[8] = tested on: SF-295 CNS
[9] = tested on: K-562 leukemia
[10] = tested on: SNB-19 CNS
[11] = tested on: NCI-H226 lung
[12] = tested on: CCRF-CEM leukemia
[13] = tested on: HCT-15 colon
[14] = tested on: UACC-62 melanoma
[15] = tested on: OVCAR-3 ovarian
[16] = tested on: SW-620 colon
[17] = tested on: LOX IMVI melanoma
[18] = tested on: RPMI-8226 leukemia
[19] = tested on: SF-539 CNS
[20] = tested on: ACHN renal
[21] = tested on: TK-10 renal
[22] = tested on: M14 melanoma
[23] = tested on: HT29 colon
[24] = tested on: HCC-2998 colon
[25] = tested on: SK-OV-3 ovarian
[26] = tested on: SN12C renal
[27] = tested on: KM12 colon
[28] = tested on: OVCAR-8 ovarian
[29] = tested on: EKVX NSCLC
[30] = tested on: OVCAR-5 ovarian
[31] = tested on: SK-MEL-28 melanoma
[32] = tested on: SK-MEL-5 melanoma
[33] = tested on: NCI-H522 lung
[34] = tested on: DU-145 prostate
[35] = tested on: RXF 393 renal
[36] = tested on: NCI/ADR-RES ovarian
[37] = tested on: HL-60(TB) leukemia
[38] = tested on: HCT-116 colon
[39] = tested on: BT-549 breast
[40] = tested on: OVCAR-4 ovarian
[41] = tested on: IGROV1 ovarian
[42] = tested on: UO-31 renal
[43] = tested on: U251 CNS
[44] = tested on: SK-MEL-2 melanoma
[45] = tested on: MDA-MB-435
[46] = tested on: NCI-H23 lung
[47] = tested on: HS 578T breast
[48] = tested on: SF-268 CNS
[49] = tested on: HOP-62 NSCLC
[50] = tested on: MOLT-4 leukemia
[51] = tested on: CAKI-1 renal
[52] = tested on: MDA-MB-231 breast
[53] = tested on: T-47D breast
[54] = tested on: A549 NSCLC
[55] = tested on: COLO 205 colon
[56] = tested on: UACC-257 melanoma
[57] = tested on: SR leukemia
[58] = tested on: A498 renal
[59] = tested on: HOP-92 NSCLC

## CCC(C)c1c(Cl)nc(Cl)nc1Cl (stereo unspecified)
[1]
  TGI: 23.8 µM
[2]
  TGI: 26.8 µM
[3]
  TGI: 22 µM
[4]
  TGI: 34.2 µM
[5]
  TGI: > 100 µM
[6]
  TGI: 30 µM
[7]
  TGI: 44.1 µM
[8]
  TGI: 42.2 µM
[9]
  TGI: > 100 µM
[10]
  TGI: 30.7 µM
[11]
  TGI: 7.75 µM
[12]
  TGI: > 100 µM
[13]
  TGI: 35.3 µM
[14]
  TGI: 52.8 µM
[15]
  TGI: 14.8 µM
[16]
  TGI: > 100 µM
[17]
  TGI: > 100 µM
[18]
  TGI: > 100 µM
[19]
  TGI: 58.8 µM
[20]
  TGI: 11.9 µM
[21]
  TGI: 41.3 µM
[22]
  TGI: 3.43 µM
[23]
  TGI: 24.1 µM
[24]
  TGI: 60.6 µM
[25]
  TGI: > 100 µM
[26]
  TGI: 85.4 µM
[27]
  TGI: 10.6 µM
[28]
  TGI: 38.3 µM
[29]
  TGI: 48.8 µM
[30]
  TGI: 33.2 µM
[31]
  TGI: 22.5 µM
[32]
  TGI: 13 µM
[33]
  TGI: 2.51 µM
[34]
  TGI: 30.4 µM
[35]
  TGI: 20.7 µM
[36]
  TGI: > 100 µM
[37]
  TGI: > 100 µM
[38]
  TGI: 17.9 µM
[39]
  TGI: 4.65 µM
[40]
  TGI: 46.2 µM
[41]
  TGI: 34.5 µM
[42]
  TGI: 33.4 µM
[43]
  TGI: 15.4 µM
[44]
  TGI: > 100 µM
[45]
  TGI: 9.1 µM
[46]
  TGI: 15.5 µM
[47]
  TGI: > 100 µM
[48]
  TGI: > 100 µM
[49]
  TGI: 16 µM
[50]
  TGI: > 100 µM

## CCOn1c(C2(CC3CCN(C(=O)c4ccccc4)CC3)OCCO2)cc2ccccc21
[1]
  TGI: 30.1 µM
[2]
  TGI: 34.6 µM
[3]
  TGI: 30 µM
[4]
  TGI: 27.1 µM
[5]
  TGI: 33.2 µM
[6]
  TGI: 30 µM
[51]
  TGI: 30.2 µM
[7]
  TGI: 26 µM
[8]
  TGI: 30.5 µM
[9]
  TGI: 38.2 µM
[10]
  TGI: 30.9 µM
[11]
  TGI: 20.4 µM
[12]
  TGI: 31.7 µM
[52]
  TGI: 30 µM
[53]
  TGI: 56.2 µM
[54]
  TGI: 32.4 µM
[55]
  TGI: 36.3 µM
[13]
  TGI: 42.3 µM
[14]
  TGI: 23.4 µM
[15]
  TGI: 30 µM
[56]
  TGI: 23 µM
[16]
  TGI: 35.7 µM
[17]
  TGI: 30.4 µM
[18]
  TGI: 28.1 µM
[19]
  TGI: 68.1 µM
[57]
  TGI: 22.5 µM
[20]
  TGI: 27.9 µM
[21]
  TGI: 24.7 µM
[22]
  TGI: 33.6 µM
[23]
  TGI: 34.2 µM
[58]
  TGI: 26.1 µM
[25]
  TGI: 45.3 µM
[26]
  TGI: 30.9 µM
[27]
  TGI: 30.9 µM
[28]
  TGI: 29.2 µM
[29]
  TGI: 40.1 µM
[30]
  TGI: 37.4 µM
[31]
  TGI: 27.7 µM
[32]
  TGI: 24.6 µM
[33]
  TGI: 35 µM
[34]
  TGI: 31.9 µM
[35]
  TGI: 31.2 µM
[36]
  TGI: 33.9 µM
[59]
  TGI: 23.5 µM
[38]
  TGI: 29.2 µM
[39]
  TGI: 34.5 µM
[40]
  TGI: 29.9 µM
[41]
  TGI: 31.7 µM
[42]
  TGI: 26.9 µM
[43]
  TGI: 29.9 µM
[44]
  TGI: 32.2 µM
[45]
  TGI: 27.4 µM
[46]
  TGI: 40.6 µM
[48]
  TGI: 35 µM
[49]
  TGI: 28.3 µM
[50]
  TGI: 31.3 µM

Source: PubChem BioAssay (NCI)
